Data reported in article PMC6264673, “Synthesis and SAR Study of Novel Peptide Aldehydes as Inhibitors of 20S Proteasome” (Molecules, 2011).
Non-standard residues stand in square brackets, D forms with d. Residues, ends and D or L forms follow the SMILES beside them. *: point of attachment. Arg(NO2) = N=C(NCCC[C@H](N)C(=O)O)N[N+](=O)[O-]; 2Nal = N[C@@H](Cc1ccc2ccccc2c1)C(=O)O; Tos = Cc1ccc(S(=O)(=O)*)cc1; Cbz = O=C(OCc1ccccc1)*; Boc = CC(C)(C)OC(=O)*; OBn = c1ccc(CO*)cc1; Bn = c1ccc(C*)cc1; OtBu = CC(C)(C)O*

Target: T1, ChT-L activity of 20S proteasome (Mus musculus, UniProt O09061+O55234)
T1 construct: 20S proteasome purified from mouse liver; from tissue; host or cells: mouse liver
Assay: Assay for ChT-L activity of 20S proteasome with fluorogenic peptide Suc-Leu-Leu-Val-Tyr-AMC
Type: biochemical
Conditions: for IC50: 20S proteasome purified from mouse liver (1 μg), 50 μM Suc-Leu-Leu-Val-Tyr-AMC, 20 mM Tris-HCl pH 7.8, 37 °C, 1 h; for fold higher ChT-L inhibitory activity than the other Cbz series compounds: comparison within the Cbz series; for ChT-L inhibitory activity compared with the control MG132: result in words, versus positive control MG132
Description: Inhibitory activities of peptide aldehydes on the 20S proteasome are assayed in vitro [41]. MG132 was used as the positive control (Table 1).
Assays for proteasome activities. The enzymatic activities of the proteasome were assayed using fluorogenic peptides: Suc-Leu-Leu-Val-Tyr-AMC (Suc represents succinyl and AMC represents […], obtained from Sigma) for ChT-L activity. 20S proteasome purified from mouse liver (1 μg) was incubated with various concentrations of compounds and 50 μM fluorogenic peptides in 20 mM Tris-HCl pH 7.8 (100 μL) at 37 °C for 1 h, respectively. The fluorescence of released AMC was measured by a spectrofluorimeter (Fluostar OPTIMA, BMG Germany) at excitation/emission wavelengths of 380/440 nm and 335/410 nm, respectively. 0.1% DMSO was used as solvent control. Compared with the fluorescence of solvent control, an inhibition rate was calculated and thereafter the IC50 value was deduced.

IC50 [nM] | fold higher ChT-L inhibitory activity than the other Cbz series compounds | Compound | ChT-L inhibitory activity compared with the control MG132
200 ± 35 | – | CC(C)CC(C=O)NC(=O)C(CC(C)C)NC(=O)C(CC(=O)OC(C)(C)C)NC(=O)OCc1ccccc1 [Compound 3b, Cbz-L-Asp(OtBu)-L-Leu-L-Leucinal] (Cbz-Asp(OtBu)-Leu-Leu-aldehyde; configuration not given here) | –
89 ± 20 | about 10 fold | CC(C)C[C@@H](C=O)NC(=O)[C@H](CC(C)C)NC(=O)[C@H](CCC(=O)OC(C)(C)C)NC(=O)OCc1ccccc1 [Compound 3d, Cbz-L-Glu(OtBu)-L-leu-L-Leucinal] (Cbz-Glu(OtBu)-Leu-Leu-aldehyde) | much higher activities than the control MG132
> 50000 | – | Cc1ccc(S(=O)(=O)NC(=N)NCCCC(NC(=O)OCc2ccccc2)C(=O)NC(CC(C)C)C(=O)NC(C=O)CC(C)C)cc1 [Compound 3g, Cbz-L-Arg(Tos)-L-leu-L-Leucinal] (Cbz-Arg(Tos)-Leu-Leu-aldehyde; configuration not given here) | –
7140 ± 1930 | – | CC(C)C[C@@H](C=O)NC(=O)[C@H](Cc1ccccc1)NC(=O)[C@H](CCC(=O)OCc1ccccc1)NC(=O)OC(C)(C)C [Compound 3k, Boc-L-Glu(OBzl)-L-Phe-L-Leucinal] (Boc-Glu(OBn)-Phe-Leu-aldehyde) | –
> 50000 | – | CC(C)C[C@@H](C=O)NC(=O)[C@H](CC(C)C)NC(=O)[C@H](CCC(=O)OCc1ccccc1)NC(=O)OC(C)(C)C [Compound 3l, Boc-L-Glu(OBzl)-L-Leu-L-Leucinal] (Boc-Glu(OBn)-Leu-Leu-aldehyde) | –
> 50000 | – | CC(C)CC(C=O)NC(=O)C(Cc1ccccc1)NC(=O)C1CCCN1C(=O)OC(C)(C)C [Compound 3m, Boc-L-Pro-L-Phe-L-Leucinal] (Boc-Pro-Phe-Leu-aldehyde; configuration not given here) | –
> 50000 | – | CC(C)CC(C=O)NC(=O)C(CC(C)C)NC(=O)C(Cc1ccc(OCc2ccccc2)cc1)NC(=O)OC(C)(C)C [Compound 3q, Boc-L-Tyr(OBn)-L-Leu-L-Leucinal] (Boc-Tyr(Bn)-Leu-Leu-aldehyde; configuration not given here) | –
280 ± 60 | – | CC(C)C[C@@H](C=O)NC(=O)[C@H](CC(C)C)NC(=O)[C@H](CC(C)C)NC(=O)OCc1ccccc1 [MG132, Cbz-L-Leu-L-Leu-L-Leucinal, reference compound] (Cbz-Leu-Leu-Leu-aldehyde) | –
850 ± 47 | – | Cbz-L-Phe-L-leu-L-Leucinal [Compound 3e] | –

Continued, compound first:

Compound | IC50 [nM] | fold higher ChT-L inhibitory activity than the other Cbz series compounds | ChT-L inhibitory activity compared with the control MG132
CC(C)CC(C=O)NC(=O)C(Cc1ccccc1)NC(=O)C(CC(=O)OC(C)(C)C)NC(=O)OCc1ccccc1 [Compound 3a, Cbz-L-Asp(OtBu)-L-Phe-L-Leucinal] (Cbz-Asp(OtBu)-Phe-Leu-aldehyde; configuration not given here) | 210 ± 14 | – | –
CC(C)C[C@@H](C=O)NC(=O)[C@H](Cc1ccccc1)NC(=O)[C@H](CCC(=O)OC(C)(C)C)NC(=O)OCc1ccccc1 [Compound 3c, Cbz-L-Glu(OtBu)-L-Phe-L-Leucinal] (Cbz-Glu(OtBu)-Phe-Leu-aldehyde) | 28 ± 6 | about 10 fold | much higher activities than the control MG132
CC(C)C[C@@H](C=O)NC(=O)[C@H](CC(C)C)NC(=O)[C@H](CCCNC(N)=N[N+](=O)[O-])NC(=O)OCc1ccccc1 [Compound 3f, Cbz-L-Arg(NO2)-L-leu-L-Leucinal] (Cbz-[Arg(NO2)]-Leu-Leu-aldehyde) | > 50000 | – | –
CC(C)C[C@@H](C=O)NC(=O)[C@H](CC(C)C)NC(=O)[C@H](Cc1ccc2ccccc2c1)NC(=O)OCc1ccccc1 [Compound 3h, Cbz-L-(2-Naphthyl)alanine-L-Leu-L-Leucinal] (Cbz-[2Nal]-Leu-Leu-aldehyde) | 410 ± 82 | – | –
CC(C)C[C@@H](C=O)NC(=O)[C@H](Cc1ccccc1)NC(=O)[C@H](CC(=O)OCc1ccccc1)NC(=O)OC(C)(C)C [Compound 3i, Boc-L-Asp(OBzl)-L-Phe-L-Leucinal] (Boc-Asp(OBn)-Phe-Leu-aldehyde) | 4830 ± 2300 | – | –
CC(C)CC(C=O)NC(=O)C(CC(C)C)NC(=O)C(CC(=O)OCc1ccccc1)NC(=O)OC(C)(C)C [Compound 3j, Boc-L-Asp(OBzl)-L-Leu-L-Leucinal] (Boc-Asp(OBn)-Leu-Leu-aldehyde; configuration not given here) | 20300 ± 2050 | – | –
CC(C)CC(C=O)NC(=O)C(CC(C)C)NC(=O)C1CCCN1C(=O)OC(C)(C)C [Compound 3n, Boc-L-Pro-L-Leu-L-Leucinal] (Boc-Pro-Leu-Leu-aldehyde; configuration not given here) | > 50000 | – | –
CC(C)CC(C=O)NC(=O)C(CC(C)C)NC(=O)C(COCc1ccccc1)NC(=O)OC(C)(C)C [Compound 3o, Boc-L-Ser(OBn)-L-Leu-L-Leucinal] (Boc-Ser(Bn)-Leu-Leu-aldehyde; configuration not given here) | 50 ± 2 | – | much higher activities than the control MG132
CC(C)CC(C=O)NC(=O)C(CC(C)C)NC(=O)C(NC(=O)OC(C)(C)C)C(C)OCc1ccccc1 [Compound 3p, Boc-L-Thr(OBn)-L-Leu-L-Leucinal] (Boc-Thr(Bn)-Leu-Leu-aldehyde; configuration not given here) | 290 ± 21 | – | –
